Source: patent publication US8207329B2, “Synthesis of chlorins and phorbines with enhanced red spectral features” (North Carolina State University, priority 2005, dated 2012)
“And” between values parts separate entries of the source, which are not always exact repeats. Equal values may be shown once. Read-outs that look alike come from different tables or passages of the source.

How the values were obtained:
[1] = Fluorescence spectra and fluorescence quantum yields in toluene at room temperature; assay type: physicochemical
Procedure: Fluorescence Spectroscopy. The fluorescence spectra and fluorescence quantum yields reported herein were collected in toluene at room temperature. Measurements of fluorescence quantum yield (Φf) were carried out using chlorin Zn-11 (Φf=0.065) as a standard (Strachan, J.-P. et al., J. Org. Chem. 2000, 65, 3160-3172).

[2] = Absorption spectra obtained in toluene at room temperature; assay type: physicochemical
Text: (§1) Absorption Spectra. The spectral properties of interest in the chlorins include the position of the long-wavelength Qy transition, the intensity of the Qy transition, and the fluorescence quantum yield of the chlorin. The intensity of the Qy transition can be assessed by the measured molar absorption coefficient; however, comparisons of such values are somewhat unreliable given the experimental variability encountered upon handling small quantities of materials. A better comparison is achieved by examination of the ratio of the intensities of the B and Qy bands for a given compound (B/Qy ratio), which is determined simply by absorption spectroscopy without requiring determination of the molar absorption coefficient. For a wide variety of applications, bathochromic and hyperchromic shifts of the Qy band are desired (i.e., shifted to longer wavelength and intensified), thereby affording strong absorption in the deep-red region.
General. ^1H NMR (400 MHz) and ^13C NMR (75 MHz) spectra were collected at room temperature in CDCl3. Absorption spectra were obtained in toluene at room temperature. Chlorins were analyzed by laser desorption mass spectrometry (LD-MS) in the absence of a matrix. Fast atom bombardment mass spectrometry (FAB-MS) data are reported for the molecule ion or protonated molecule ion. Melting points are uncorrected. All commercially available materials were used as received. All palladium-coupling reactions were carried out using standard Schlenk-line techniques.
as §1, with “B. Absorption” for “Absorption”, “Spectroscopy.” for “Spectra.”, “increased” for “intensified), thereby affording strong absorption”, “intensity).” for “the deep-red region.”
General. ^1H NMR (400 MHz) and ^13C NMR (75 MHz) spectra were collected at room temperature in CDCl3 unless noted otherwise. Absorption spectra were obtained in toluene at room temperature. Chlorins were analyzed by laser desorption mass spectrometry (LD-MS) in the absence of a matrix. Metalation of free base chlorins was monitored by fluorescence spectroscopy. Melting points are uncorrected. All commercially available materials were used as received.

[3] = comparison values, Strachan et al.; cited from earlier work
[4] = Table 1, in toluene at room temperature

| strong / dominant Qy(0,0) fluorescence band [1] | weak emission feature / broad weak band [1] | fluorescence quantum yield (Φf) ([1]; standard Zn-11 (Φf=0.065)) | B/Qy intensity ratio [2, 4] | Log ε (M^−1cm^−1) (Qy band) [2, 4] | λmax (nm), B [2, 4] | λmax (nm), Qy [2, 4] | redshift of the Qy band ([2]; Example 1, versus benchmark chlorin lacking the 13-substituent (Zn-11 or 11), toluene) | Qy band ([2]; figure legends (FIG. 1, 2, 4, 5), toluene at room temperature, normalized at the B bands) | SMILES | fluorescence quantum yield (Φf) [3] |
| --- | --- | --- | --- | --- | --- | --- | --- | --- | --- | --- |
| approximately 668 nm | ~711 nm and ~744 nm | 0.23 | 2.3 | 4.67 M^−1cm^−1 | 422 nm | 661 nm | – | – | CC(=O)c1cc2[nH]c1cc1nc(cc3ccc([nH]3)c(-c3ccc(C)cc3)c3nc(c2-c2c(C)cc(C)cc2C)C=C3)C(C)(C)C1 [compound 8, 13-Acetyl-17,18-dihydro-10-mesityl-18,18-dimethyl-5-p-tolylporphyrin] | – |
| – | – | – | 2.5 | – | 417 nm | 660 nm | 19 nm | 660 nm | Cc1ccc(-c2c3nc(c(-c4c(C)cc(C)cc4C)c4cc5c([nH]4)c(c4nc(cc6ccc2[nH]6)C(C)(C)C4)CC5=O)C=C3)cc1 [compound 10, 18,18-Dimethyl-10-mesityl-13^1-oxo-5-p-tolylphorbine] | 0.29 |
